Earlier results in publication PMC4610388 (European journal of medicinal chemistry, 2015).

Assays:
[1] = tested on: mammalian dihydrofolate reductases
E. coli DHFR = E. coli DHFR (Escherichia coli, UniProt P0ABQ4); settings: previous study from the authors' lab
E. coli DHFR, sequence (P0ABQ4 whole entry): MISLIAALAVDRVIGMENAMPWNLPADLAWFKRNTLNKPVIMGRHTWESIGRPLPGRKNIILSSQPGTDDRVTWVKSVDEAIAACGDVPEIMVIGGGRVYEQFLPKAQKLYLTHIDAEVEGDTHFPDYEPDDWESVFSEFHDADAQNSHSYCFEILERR

| SMILES | inhibition of mammalian dihydrofolate reductases [1] | slow-onset tight binding behaviour (E. coli DHFR) |
| --- | --- | --- |
| Nc1nnc(-c2cccc(Cl)c2Cl)c(N)n1 [Lamotrigine, 6-(2,3-dichlorophenyl)-1,2,4-triazine-3,5-diamine] | weakly inhibit | – |
| Nc1nc(N)c2c(ccc3[nH]ccc32)n1 [NSC339578, 7H–pyrrolo [3,2-f] quinazoline-1,3-diamine] | – | does not show slow-onset of inhibition |
